Test [1] relates to peripheral nervous system cells (iPSC-derived peripheral neurons). Kind of test: iPSC-derived neuron viability, calcein-AM & H-33342 imaging. The test is classed as cell-based, human. Conditions: 24 h, concentrations up to 100 μM. Here is the method:
The human iPSC (Sigma iPSC0028 (EPITHELIAL-1, #IPSC0028) were maintained and differentiated towards immature dorsal root ganglia neurons according to [Hoelting et al. (2016)] ([Hoelting et al., 2016]). Briefly, a total of 90,000 cells/cm^2 were seeded on Matrigel. The differentiation was initiated with neural differentiation medium (KSR-S; Dulbecco’s modified Eagle’s medium [DMEM/F12] containing 15% knockout serum replacement, 1 × Glutamax, 1 × nonessential amino acids, and 50 μM ß-mercaptoethanol) supplemented with 17.5 ng/ml noggin, 10 μM SB-431642 from day of stem cell differentiation (DoD) DoD0 to DoD5. Starting on DoD2 CHIR99021 (1.5 μM), SU5402 (5 μM) and DAPT (5 μM) were added. […]
The assays were performed as described previously ([Hoelting et al., 2016]; [Klima et al., 2021]; [Krug et al., 2013]). […] 24 h after treatment the Calcein/Hoechst readout was performed.
Neurite area (NA) and viability (V) were assessed as described previously ([Stiegler et al., 2011]). […] Image acquisition was performed using an Array-Scan VTI HCS Reader (Cellomics, PA, USA) equipped with a Hamamatsu ORCA-ER camera. […]

For test [2], the system named is Enterococcus faecalis. The experiment in a line: Bacterial growth assay. The test is classed as cell-based. Conditions: 20 μM, log growth phase. Here is the method:
Enterococcus faecalis was grown in BHI medium (BD Difco Brain Heart Infusion) with 36 g/l supplemented with 20 μg/ml hemin, 20 μg/ml NAD and 15 g/l agar for plates. Enterococcus faecalis strain 438 originates from eye isolate. Neisseria gonorrhoeae strain MS11 was gifted by T. F. Meyer (Max-Planck-Institute for Infection Biology, Berlin, Germany) ([Edwards et al., 1984]).
Bacteria were grown as described above on solid medium. Prior to substance exposure, bacteria were pre-cultured in liquid medium for at least 2 h. Optical density was determined and a volume equal to an OD550 of 0.2 for Neisseria gonorrhoeae MS11 (equates a final OD550 of 0.04) and an OD600 of 0.2 for Enterococcus faecalis (equates a final OD600 of 0.04) was inoculated into 5 ml of the respective liquid medium. Compound was added at the indicated amounts. Dimethyl sulfoxide (DMSO) level was adjusted to 1 % of final concentration including DMSO control. Samples were incubated for either 10.5 h, until they reached a stationary phase (three measured values in stationary phase) or until they reached an OD of 2.5. Optical density was determined every 0.5 h at OD550 for Neisseria gonorrhoeae MS11 and at OD600 for Enterococcus faecalis. ([Szamosvári et al., 2019]).

Structures are written as SMILES.

For `OCC1CSC(c2ccccc2O)=N1` (centres unmarked) [aerugine, 2-[4-(hydroxymethyl)-4,5-dihydro-1,3-thiazol-2-yl]phenol], the “effect on cell viability” value in test [1] was “no effect”. Besides, the viability or growth entry in test [2] is listed as “not affected in viability or growth”.

Values taken from article PMC10666548, “Identification of the bacterial metabolite aerugine as potential trigger of human dopaminergic neurodegeneration” (Environment international, 2023).
